Source: paper PMC4875834 (The Biochemical journal, 2016)

Biological target: T1, DC-SIGN (Homo sapiens, UniProt Q9NNX6)
T1 sequence (Q9NNX6 62-404): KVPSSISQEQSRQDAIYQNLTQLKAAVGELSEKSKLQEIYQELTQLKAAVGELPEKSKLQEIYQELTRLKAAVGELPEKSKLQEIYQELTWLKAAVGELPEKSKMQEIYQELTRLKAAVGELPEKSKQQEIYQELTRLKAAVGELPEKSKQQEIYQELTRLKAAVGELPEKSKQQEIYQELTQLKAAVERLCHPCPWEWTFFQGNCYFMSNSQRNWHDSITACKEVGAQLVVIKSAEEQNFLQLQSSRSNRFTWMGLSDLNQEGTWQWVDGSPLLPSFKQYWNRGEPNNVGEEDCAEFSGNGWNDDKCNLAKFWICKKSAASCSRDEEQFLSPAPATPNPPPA
Assay: free-glycan inhibition of DC-SIGN binding to HMG microarrays

IC50: ~1 mM
Structure (SMILES): C[C@@H]1O[C@@H](O[C@H]2[C@H](O[C@H]3[C@H](O)[C@@H](O)C(O)O[C@@H]3CO)O[C@H](CO)[C@H](O)[C@@H]2O)[C@@H](O)[C@H](O)[C@@H]1O (stereo partly shown) [2′-FL, 2′-fucosyllactose]
